“Also recorded” adds a separate entry of the source.
Tests used:
[1] = system: exosomal miR-195-5p; assay: brain and serum exosomal miR-195-5p levels in mice treated with synj1-lowering agents; assay type: in vivo, mouse; conditions: for serum exosomal miR-195 levels: treated 5×FAD mice versus vehicle controls, N=6-8/group; for brain exosomal miR-195-5p levels: treated mice versus controls
Procedure: As disclosed herein, a study was performed to examine exosomal fractions of brain and serum samples of synj1 haploinsufficiency mice (ApoE3 synj1^+/− and ApoE4 synj1^+/−) as well as of mice treated with synj1-lowering agents (SynaptoCpd #9 and Cpd #6). Exosomes were purified using sucrose gradient fractionation methods and the purity of exosome fractions were evaluated by western blot analysis of exosomal protein markers such as ALIX, and uptake studies of fluorescence tagged exosomes by human iPSC-derived astrocyte cultures. […] In addition, serum exosomal miR-195-5p levels were positively correlated with brain exosomal miR-195-5p levels and cognitive performance (NOR preference index and Y maze SAP scores), and reversely correlated with brain insoluble pTau and synj1 protein levels in drug-treated mouse cohorts (FIG. 19C).

[2] = system: ApoE receptors; assay: miR-195 levels in ApoE-/- neurons treated with ApoE3-CM or ApoE4-CM in the presence of RAP; assay type: cell-based, mouse; conditions: N=3/group
Procedure: Mouse Neuronal and human iPSC culture. Primary cortical neurons were cultured (Zhu L et al., Proc Natl Acad Sci USA 2015, and Zhu L et al., J Biol Chem 2013) before being fixed and stained for confocal microscopy analysis (Zeiss LSM) (Berg I et al., Nat Protoc 2010). In some conditions, bovine serum albumin (BSA) or receptor-associated protein (RAP) was included in the cultured media (N=3/group). Alternatively, cultured neurons were transfected with adeno-associated virus 2 (AAV2)-containing miR-195-5p or miR-374 or scramble controls for 5 days before subjected to analysis. […]
Statistical analysis. […] Levels of miR-195-5p and miR-374 were normalized to U6 and RNU6B (internal controls) while synj1 mRNA normalized to GAPDH and 18s, and then expressed as Log2fold of changes when compared to controls. Levels of synj1, dyn1, pTau, Tau, and holoAPP were normalized to β-actin levels and expressed as a percentage of the control. Absolute Aβ42, Aβ40, pTau, Tau, and ApoE concentrations were quantitatively determined by ELISA and expressed as a percentage of the control. […] Pearson correlation coefficients were calculated to determine the linear relationship between the two variables. […]

Compound	serum exosomal miR-195 levels [1]	brain exosomal miR-195-5p levels [1]	miR-195 levels ([2]; ApoE4 CM+RAP (ApoE4 CM+BSA −3.193±0.144))	miR-195 levels ([2]; RAP in the presence of ApoE3-CM)
COCCOC(=O)C1=C(C)NC(C)=C(C(=O)OC(C)C)C1c1ccc(C(F)(F)F)cc1 (stereo not drawn) [Cpd #6]	much higher; also recorded: significantly elevated	much higher	–	–
COCCOC(=O)C1=C(C)NC(C)=C(C(=O)OC(C)C)C1c1ccc(C(C)(C)C)cc1 (stereo not drawn) [Cpd #9]	much higher; also recorded: significantly elevated	much higher	–	–
RAP: ApoE-receptor associated protein, an inhibitor of ApoE receptors	–	–	−2.678±0.054 log2FC	−1.648±0.125 log2FC

— patent US20240301408A1, “MICRORNA 195 COMPOSITIONS AND METHODS FOR TREATING COGNITIVE IMPAIRMENT” (UNITED STATES GOVERNMENT AS REPRESENTED BY THE DEPARTMENT …, priority 2021, published 2024)
